Experimental data: US20060247260A1, “Bis (hetero) aryl carboxamide derivatives for use as PG12 antagonists” (BAYER HEALTHCARE AG, priority 2003, published 2006)

Columns and labels:
PGI2 receptor = molecular target: T1, PGI2 receptor (Homo sapiens, UniProt P43119); test: PGI2 receptor binding/cAMP in HEL cells (in vitro activity grade); settings: compounds of purity about 40 to 90%
T1 construct: host or cells: HEL 92.1.7 human erythroleukemia cells (whole cells)
Method: [Measurement of the [^3H]-Iloprost Binding to HEL Cells] (Assay 1) A human erythloleukemia cell line, HEL 92.1.7, was purchased from American Type Culture Correction and maintained in RPMI-1640 medium (Gibco BRL) supplemented with 10% fetal calf serum (FCS), 2 mM glutamine, 4.5 g/L glucose, 10 mM Hepes, 1 mM sodium pyruvate, 100 U/ml penicillin, and 100 μg/ml streptomycin in a humidified 5% CO2 atmosphere at 37° C. Cells were collected with centrifugation and washed with binding assay buffer (BAB: 50 mM Tris-HCl, 5 mM MgCl2 (pH 7.5)). Cells were suspended at the density of 6.25×10^6 cells/ml in BAB, and one million cells in 160 μl aliquot of cell suspension were put in a well of 96 well plate (Falcon). Then, 20 μl of compound solution, 100 μM of iloprost (for non-specific binding), or buffer alone (total binding), diluted with 1% DMSO in BAB was added. Finally, another 20 μl containing [^3H]-iloprost (0.02 μCi, 0.5-1 pmol) in BAB was added and incubated at room temperature for 30 min with a gentle shaking. Cell suspension was then transferred to a well of MultiScreen plate with GF/C glass filters (Millipore) to harvest cells. Cells were washed twice with 200 μl of ice-cold BAB and the plate was kept at 55° C. for 30 min to dry filters. The filter in the well was punched out to a counting tube and 2 ml of Ultima Gold XR Packard) was added. [^3H]-radio activity in the filter was measured by a liquid scintillation counter (Beckman, USA). [Iloprost-Induced cAMP Production Assay in HEL Cells] (Assay 2) HEL cells were collected with centrifugation and washed with cAMP assay buffer (CAB: Hank's balanced salt solution, 17 mM Hepes, 0.1% bovine serum albumin, 1 mM IBMX, 0.4% DMSO, and 1 mM L-ascorbic acid sodium salt (pH 7.4)). Cells were suspended at the density of 2.5×10^5 cells/ml in CAB, and twenty thousand cells in 80 μl aliquot of cell suspension were put in a well of 96 well plate (Falcon). Then, 10 μl of compound solution diluted with 1% DMSO in CAB or buffer alone was added. The plate was incubated at 37° C. for 30 min. Then, another 10 μl containing 100 nM iloprost in CAB or buffer alone was added and further incubated at 37° C. for 30 min. cAMP content in the well was measured by, a cAMP ELISA kit (Applied Biosystems, USA). The data corresponds to the compounds as yielded by solid phase synthesis and thus to levels of purity of about 40 to 90%. For practical reasons, the compounds are grouped in three classes of activity as follows: In vitro activity grade=A≦0.1 μM<B≦1 μM<C

T1 sequence (P43119 whole entry): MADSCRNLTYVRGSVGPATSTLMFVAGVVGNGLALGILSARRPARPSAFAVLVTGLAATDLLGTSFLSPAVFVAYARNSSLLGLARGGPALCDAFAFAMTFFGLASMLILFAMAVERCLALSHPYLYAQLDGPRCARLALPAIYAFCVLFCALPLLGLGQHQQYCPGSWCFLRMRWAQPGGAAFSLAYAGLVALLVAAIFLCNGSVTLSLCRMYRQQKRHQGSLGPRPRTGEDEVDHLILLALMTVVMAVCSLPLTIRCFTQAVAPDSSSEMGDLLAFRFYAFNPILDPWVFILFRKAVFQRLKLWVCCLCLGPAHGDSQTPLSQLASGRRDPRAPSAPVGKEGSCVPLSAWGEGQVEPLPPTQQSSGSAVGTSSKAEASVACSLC

In vitro activity grade (PGI2 receptor): A (A≦0.1 μM) | melting point: 215 °C
Compound: O=C(NC(Cc1ccccc1)C(=O)O)c1ccc(-c2ccc(OCc3ccccc3)c(F)c2)cc1 (centres unmarked) [Example 7-1, 2-[(4′-Benzyloxy-3′-fluorobiphenyl-4-carbonyl)amino]-3-phenylpropionic acid]
